We go through 20 compounds from patent publication US20230140635A1, “3-(2-(Aminoethyl)-Indol-4-ol Derivatives, Methods of Preparation Thereof, and the Use as 5-HT2 Receptor Modulators” (priority 2020, published 2023).

Series [1] addresses T1, 5-HT2A (Homo sapiens, UniProt P28223). Put plainly: 5-HT2 Gq-Dissociation BRET assay. The series is classed as cell-based. As to conditions: for IC50: HEK293T cells, 1 hour at 37° C.; for Emax: read-out: % efficacy vs 5-HT@ 100%, 5-HT2A. Also on record: expressed in transfected cells; host or cells: HEK293T.
For series [2], the target named is T2, 5-HT2B (Homo sapiens, UniProt P41595). As to the kind of experiment: cell-based. The series is classed as cell-based. Details: expressed in transfected cells; host or cells: HEK293T. As to conditions: for Emax: 1 h, read-out: % efficacy vs 5-HT@ 100%, 5-HT2B; for IC50: HEK293T cells, 1 hour at 37° C., read-out: IC50 nM 5-HT2 Gq Dissociation BRET assay, 5-HT2B. On the technique in general: BRET reads energy transfer from a luciferase to a nearby fluorophore.
T2 sequence (P41595 whole entry): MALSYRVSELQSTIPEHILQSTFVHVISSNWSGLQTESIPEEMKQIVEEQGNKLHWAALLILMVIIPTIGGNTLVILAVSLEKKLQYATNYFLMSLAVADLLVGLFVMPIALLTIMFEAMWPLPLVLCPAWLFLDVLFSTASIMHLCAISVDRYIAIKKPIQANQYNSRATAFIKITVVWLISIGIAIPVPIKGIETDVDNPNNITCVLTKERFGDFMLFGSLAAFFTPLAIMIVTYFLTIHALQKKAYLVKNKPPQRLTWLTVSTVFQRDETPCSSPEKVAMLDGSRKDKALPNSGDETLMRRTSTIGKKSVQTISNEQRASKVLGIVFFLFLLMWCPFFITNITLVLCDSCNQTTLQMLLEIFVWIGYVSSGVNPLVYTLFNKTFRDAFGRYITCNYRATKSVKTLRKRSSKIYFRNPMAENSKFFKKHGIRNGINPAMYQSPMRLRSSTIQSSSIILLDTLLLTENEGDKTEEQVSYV

For series [3], the target named is T3, 5-HT2C (Homo sapiens, UniProt P28335).
T3 sequence (P28335 33-458): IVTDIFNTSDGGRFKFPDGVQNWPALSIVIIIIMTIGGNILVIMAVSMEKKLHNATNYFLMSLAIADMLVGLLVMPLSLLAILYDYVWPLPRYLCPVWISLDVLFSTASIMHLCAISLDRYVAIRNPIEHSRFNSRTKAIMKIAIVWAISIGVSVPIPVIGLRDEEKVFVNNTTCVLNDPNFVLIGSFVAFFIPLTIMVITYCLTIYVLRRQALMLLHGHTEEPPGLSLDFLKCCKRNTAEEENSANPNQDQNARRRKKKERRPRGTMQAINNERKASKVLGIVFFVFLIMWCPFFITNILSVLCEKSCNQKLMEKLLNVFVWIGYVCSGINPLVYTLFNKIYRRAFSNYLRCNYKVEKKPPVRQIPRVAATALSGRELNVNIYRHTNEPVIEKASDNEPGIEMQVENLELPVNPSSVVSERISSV
Put plainly: cell-based. Details: expressed in transfected cells; host or cells: HEK293T. As to conditions: for Emax: read-out: % efficacy vs 5-HT@ 100%, 5-HT2C.

Series [4] relates to patients. Particulars: cited from earlier work.
Series [5] addresses T3, 5-HT2C. As to conditions: read-out: agonist potency at human 5-HT2C receptor; cited from earlier work.
The target of series [6] is T4, 5-HT3 (Homo sapiens, UniProt P46098).
T4 sequence (P46098 24-478): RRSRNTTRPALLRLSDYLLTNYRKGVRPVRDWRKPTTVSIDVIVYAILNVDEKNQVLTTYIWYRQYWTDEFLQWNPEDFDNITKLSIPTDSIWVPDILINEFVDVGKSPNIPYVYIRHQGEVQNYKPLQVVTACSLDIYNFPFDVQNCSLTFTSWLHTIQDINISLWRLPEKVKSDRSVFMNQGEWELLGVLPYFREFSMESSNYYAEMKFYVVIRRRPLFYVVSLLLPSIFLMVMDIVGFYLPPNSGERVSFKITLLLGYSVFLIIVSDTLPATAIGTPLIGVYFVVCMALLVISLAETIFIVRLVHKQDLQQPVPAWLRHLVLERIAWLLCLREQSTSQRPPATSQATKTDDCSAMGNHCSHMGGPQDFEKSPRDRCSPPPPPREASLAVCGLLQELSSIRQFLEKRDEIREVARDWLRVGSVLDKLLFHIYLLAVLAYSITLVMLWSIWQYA
As to conditions: read-out: Ki 5-HT3; cited from earlier work.

The target of series [7] is T1, 5-HT2A. As to conditions: relative to serotonin at 100%; cited from earlier work.
The subject of series [8] is dopamine receptors. Particulars: cited from earlier work.
Series [9] has as its target T2, 5-HT2B. Particulars: relative to serotonin at 100%; cited from earlier work.
The mark [10] stands for this setting: HEK293T cells, 1 hour at 37° C., read-out: IC50 nM 5-HT2 Gq Dissociation BRET assay, 5-HT2C.

Counter-ions that a name gives are not always drawn. Like-named read-outs stand apart in the source and are kept apart here.

T1 sequence (P28223 whole entry): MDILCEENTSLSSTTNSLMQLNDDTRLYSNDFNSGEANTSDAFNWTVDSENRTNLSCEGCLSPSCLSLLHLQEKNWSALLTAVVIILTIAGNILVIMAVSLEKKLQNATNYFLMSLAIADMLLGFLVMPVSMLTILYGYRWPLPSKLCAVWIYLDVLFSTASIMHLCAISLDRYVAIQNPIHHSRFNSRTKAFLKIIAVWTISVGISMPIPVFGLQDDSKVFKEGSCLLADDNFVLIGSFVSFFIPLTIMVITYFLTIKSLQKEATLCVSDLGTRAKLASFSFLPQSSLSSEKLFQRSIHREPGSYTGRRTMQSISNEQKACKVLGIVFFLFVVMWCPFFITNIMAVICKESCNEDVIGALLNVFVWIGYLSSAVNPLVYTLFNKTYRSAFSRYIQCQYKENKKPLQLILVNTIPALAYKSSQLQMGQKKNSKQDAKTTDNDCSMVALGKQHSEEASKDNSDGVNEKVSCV

Take `CCN(C)CCc1cn(C)c2cccc(O)c12` [Example 12, 3-(2-(ethyl(methyl)amino)ethyl)-1-methyl-1H-indol-4-ol hydrochloride]: the values for the IC50 in series [1], in series [2] and in [3] (setting [10]) were 133 nM, 83 nM and 2.8 nM, respectively. Besides, the results for the Emax in series [1], in series [2] and in [3] were 66%, 44% and 84%, respectively.

As to `CN(CCc1cn(C)c2cccc(O)c12)CC(F)F` [Example 17, 3-(2-((2,2-difluoroethyl)(methyl)amino)ethyl)-1-methyl-1H-indol-4-ol hydrochloride], the values for the IC50 in series [1], in series [2] and in series [3] (setting [10]) were 8400 nM, 376 nM and 833 nM, respectively. Moreover, the Emax in [1] worked out at 54%; in series [2], 24%; in [3], 66%.

In the case of `C[C@H]1CNCCc2ccc(Cl)cc21` [Locaserin], the “risk of cardiac valvulopathy” value in series [4] is “no increased risk of cardiac valvulopathy”.

As for `CN(C)CCc1cn(C)c2cccc(O)c12` [Example 1, 3-(2-(dimethylamino)ethyl)-1-methyl-1H-indol-4-ol, reference compound], the EC50 in [1] (found by the inventors, read-out: potency at 5-HT2A receptors) was around 86 nM; in series [3] (found by the inventors, read-out: functional potency at human 5-HT2C receptors), around 10 nM.

Take `Cn1cc(CCNCC(F)F)c2c(O)cccc21` [Example 22, 3-(2-((2,2-difluoroethyl)amino)ethyl)-1-methyl-1H-indol-4-ol hydrochloride]: the IC50 came to 4200 nM in series [1], 1420 nM in [2] and 1890 nM in series [3] (setting [10]). Moreover, the Emax in series [1] stood at 78%; in [2], 75%; in series [3], 82%.

In the case of `COc1ccccc1CN(C)CCc1cn(C)c2cccc(O)c12` [Example 25, 3-(2-((2-methoxybenzyl)(methyl)amino)ethyl)-1-methyl-1H-indol-4-ol hydrochloride], the values for the IC50 in [1], in series [2] and in series [3] (setting [10]) were 770 nM, 4000 nM and 2.4 nM, respectively. Also, the Emax in [1] was 39%; in [2], 14%; in series [3], 70%.

On to `COc1ccccc1CNCCc1cn(C)c2cccc(O)c12` [Example 24, 3-(2-((2-methoxybenzyl)amino)ethyl)-1-methyl-1H-indol-4-ol hydrochloride], for which the IC50 in [1] was 10 nM; in [2] it was 8.3 nM; in series [3] (setting [10]), 1.6 nM. In addition, the Emax worked out at 93% in series [1], 56% in [2] and 115% in series [3].

On to `CN(C)CCc1cn(C2COC2)c2cccc(O)c12` [Example 10, 3-(2-(dimethylamino)ethyl)-1-(oxetan-3-yl)-1H-indol-4-ol], for which the IC50 in series [1] worked out at 4000 nM; in series [3] (setting [10]), 1070 nM. For the same compound, the Emax in series [1] was determined as 50%; in series [3], 60%. Moreover, in series [2] (Not Active), the “5-HT2 Gq Dissociation BRET assay, 5-HT2B, activity class” value (shortened to “5-HT2 Gq Dissociation BRET assay”) was “Not Active”.

For `CN(CCc1cn(C)c2cccc(O)c12)CC1CC1` [Example 16, 3-(2-((cyclopropylmethyl)(methyl)amino)ethyl)-1-methyl-1H-indol-4-ol hydrochloride], the values for the IC50 in series [1], in [2] and in [3] (setting [10]) were 140 nM, 0.245 nM and 14.9 nM, respectively. Besides, the Emax in series [1] amounted to 55%; in series [2], 19%; in series [3], 54%.

On to `CCCCn1cc(CCN(C)C)c2c(O)cccc21` [Example 6, 1-butyl-3-(2-(dimethylamino)ethyl)-1H-indol-4-ol, reference compound], for which the EC50 in series [5] was around 600 nM. Moreover, the IC50 in series [1] came out at 1800 nM; in [3], 1.61 nM. For the same compound, the Emax in series [1] came to 18%; in series [3], 48%. In addition, the “5-HT2 Gq Dissociation BRET assay” value in series [2] was “Not Active”.

With `CCN(CC)CCc1cn(C)c2cccc(O)c12` [Example 18, 3-(2-(diethylamino)ethyl)-1-methyl-1H-indol-4-ol hydrochloride], the IC50 in series [1] is 241 nM; in series [2] it was 64 nM; in series [3] (setting [10]), 31 nM. Moreover, the Emax in series [1] was determined as 60%; in [2], 56%; in series [3] it was 70%.

Take `CN(C)CCc1cn(CC(F)F)c2cccc(O)c12` [Example 3, 1-(2,2-difluoroethyl)-3-(2-(dimethylamino)ethyl)-1H-indol-4-ol]: the concentration for half-maximal inhibition (IC50) in series [1] is 188 nM; in series [3] (setting [10]) it was 2.7 nM. Besides, the values for the Emax in series [1] and in series [3] were 48% and 80%, respectively. The “5-HT2 Gq Dissociation BRET assay” value in [2] (Not Active) was “Not Active”.

With `CC(C)N(CCc1cn(C)c2cccc(O)c12)C(C)C` [Example 14, 3-(2-(diisopropylamino)ethyl)-1-methyl-1H-indol-4-ol hydrochloride], the IC50 was 253 nM in [1], 49.1 nM in series [2] and 393 nM in [3] (setting [10]). Besides, the Emax in series [1] came to 92%; in [2] it was 68%; in series [3] it was 98%.

In the case of `CN(C)CCc1c[nH]c2cccc(O)c12` [Psilocin, psilocin], in series [6], the Ki is above 10000 nM. Further, the “Efficacy (in parentheses), 5-HT2A” value in [7] was 43%. Further, the “effect on dopamine receptors” value in series [8] is on record as “no significant effect on dopamine receptors”. The “Efficacy (in parentheses), 5-HT2B” value in series [9] is given as 45%. Further, the “% efficacy vs 5-HT@ 100%, 5-HT2B” value in [2] is 1.07 nM (63%).

`CN(C)CCc1cn(C)c2cccc(O)c12` [Example 1, 3-(2-(dimethylamino)ethyl)-1-methyl-1H-indol-4-ol]: the Emax in [1] stood at 73%; in [2], 40%; in [3], 92%.

`CC(C)N(C)CCc1cn(C)c2cccc(O)c12` [Example 13, 3-(2-(isopropyl(methyl)amino)ethyl)-1-methyl-1H-indol-4-ol hydrochloride]: the IC50 was found to be 112 nM in series [1], 42.1 nM in series [2] and 63.5 nM in [3] (setting [10]). Also, the Emax in series [1] stood at 85%; in series [2], 83%; in series [3] it was 105%.

`CCCn1cc(CCN(C)C)c2c(O)cccc21` [Example 4, 3-(2-(dimethylamino)ethyl)-1-propyl-1H-indol-4-ol]: the IC50 in series [1] came out at 1150 nM; in series [3] (setting [10]), 3 nM. Also, the values for the Emax in series [1] and in [3] were 37% and 67%, respectively. Further, in series [2] (Not Active), the “5-HT2 Gq Dissociation BRET assay” value is given as “Not Active”.

With `CN(C)CCc1cn(C2CCC2)c2cccc(O)c12` [Example 9, 1-cyclobutyl-3-(2-(dimethylamino)ethyl)-1H-indol-4-ol], the IC50 in series [1] was found to be 4050 nM; in series [3] (setting [10]) it was 3 nM. For the same compound, the Emax came to 53% in series [1] and 44% in series [3]. Also, the “5-HT2 Gq Dissociation BRET assay” value in [2] (Not Active) is given as “Not Active”.

As to `Cn1cc(CCNCC2CC2)c2c(O)cccc21` [Example 21, 3-(2-((cyclopropylmethyl)amino)ethyl)-1-methyl-1H-indol-4-ol hydrochloride], the IC50 in series [1] came out at 497 nM; in series [2], 328 nM; in [3] (setting [10]) it was 15 nM. Besides, the Emax in series [1] is 61%; in [2], 46%; in series [3] it was 40%.

As to `CN(C)CCc1cn(CC2CC2)c2cccc(O)c12` [Example 8, 1-(cyclopropylmethyl)-3-(2-(dimethylamino)ethyl)-1H-indol-4-ol], the values for the IC50 in series [1] and in series [3] (setting [10]) were 28 nM and 0.12 nM, respectively. In addition, the values for the Emax in series [1] and in series [3] were 29% and 50%, respectively. Further, in series [2] (Not Active), the “5-HT2 Gq Dissociation BRET assay” value is recorded as “Not Active”.

For orientation: IC50 means the concentration that inhibits the measured activity by half. The Ki is a dissociation constant, usually derived from enzyme kinetics or from competition with a known ligand.
